Laboratory results as given in patent US20060009520A1, “Retinoid-based methods for altering macrophage cholesterol” (priority 2004, published 2006).

Legend:
RARα protein = assay: Western blot of nuclear RARα in RARγ-deficient macrophages; assay type: cell-based, mouse; settings: TTNPB treatment
Procedure: Nuclear protein extracts from tissues and macrophages were isolated according to the following method. Tissue samples and cells were first homogenized on ice and then lysed in lysis buffer (10 mM Tris [pH 7.5], 3 mM MgCl2, 10 mM NaCl, 0.5% NP-40) containing protease inhibitor cocktail. The nucleus was then pelleted by centrifugation for 10 min at 6,000× g, immediately resuspended in a nucleus suspension buffer (250 mM Tris [pH 8.0], 60 mM KCl, I mM dithiothrietol), and then rotated for 1 h. After centrifugation for 5 min at 6000× g, the solubilized nuclear proteins were separated by electrophoresis with a 4 to 15% gradient gel (Bio-Rad), transferred to nitrocellulose membrane (Trans-Blot transfer medium; Bio-Rad), and probed with anti-RARγ and anti-RARα antibodies (Santa Cruz Biotechnology, Santa Cruz, Calif.) and their respective horseradish peroxidase-conjugated secondary antibodies according to the manufacturer's recommendations. The intensities of the bands were quantified by using ImageQuant and normalized to (β-actin.

[1] = tested on: ABCA1, ABCG1, SREBP-1c, apoE, LXRα, Cyp26 mRNA; assay: Quantitative real-time PCR of LXR target genes and Cyp26 in mouse peritoneal macrophages; assay type: cell-based
Procedure: Total RNA was isolated from mouse peritoneal macrophages or ˜50 mg of mouse liver tissue by using the RNeasy Mini kit (Qiagen, Valencia, Calif.) or RNA-Bee reagent (Tel-Test, Inc., Friendswood, Tex.), respectively, according to the manufacturer's protocol. Real-time quantitative PCR assays were performed by using the Mx4000 Quantitative PCR System (Stratagene, La Jolla, Calif.). Briefly, 5 μg of total RNA was treated with RNase-free DNase I (Ambion, Austin, Tex.), and first-strand cDNA was synthesized with oligo(dT)12-18 by using a Superscript II RNase H^− reverse transcriptase reagent kit (Invitrogen) according to the manufacturer's protocol. For quantification of mouse ABCA1, ABCG1, SREBP-1c, LXRα, ApoE, and fatty acid synthase (FAS) mRNA levels, each amplification mixture contained 62.5 ng of cDNA, appropriate concentrations of forward and reverse primers and of dual-labeled fluorogenic probe (Biosearch Technologies, Novato, Calif.), and 12.5 μl of TaqMan Universal PCR master mix (Applied Biosystems, Foster City, Calif.). PCR thermocycling parameters were 50° C. for 2 min, 95° C. for 10 min, and 45 cycles of 95° C. for 15 s and 60° C. for 1 min. All samples were analyzed for β-actin expression in the same run. Quantitative expression values were extrapolated from standard curves for the gene of interest with 10-fold dilutions of cDNA (in triplicate). Each sample was normalized to β-actin, triplicates were averaged, and relative mRNA levels were determined. The following mouse primers and probes were used: mouse ABCA1 (mABCA1) forward (F) (5′-[…]-3′), mABCA1 reverse (R) (5′-[…]-3′), and mABCA1 TaqMan probe (5′-FAM-[…]-BHQ-3′); mABCG1 F (5′-[…]-3′), mABCG1 R (5′-[…]-3′), and mABCG1 TaqMan probe (5′-FAM-[…]-BHQ-3′); mSREBP-1c F (5′-[…]-3′), mSREBP-1c R (5′-[…]-3′), and mSREBP-1c TaqMan probe (5′-FAM-[…]-BHQ-3′); mApoE F (5′-[…]-3′), mApoE R (5′-[…]-3′), and mApoE TaqMan probe (5′-FAM-[…]-BHQ-3′); mLXRα F (5′-[…]-3′), mLXRα R (5′-[…]-3′), and mLXRα TaqMan probe (5′-FAM-[…]-BHQ-3′); mFAS F (5′-[…]-3′), mFAS R (5′-[…]-3′), and mFAS TaqMan probe (5′-FAM-[…]-BHQ-3′); and mβ-actin F (5′-[…]-3′), mβ-actin R (5′-[…]-3′), and mβ-actin TaqMan probe (5′-JOE-[…]-BHQ-3′).
For quantification of mouse Cyp26 mRNA levels, each amplification mixture (25 μ) contained 62.5 ng of cDNA, 100 nM concentrations of reverse and forward primers, and 2.5 μl of 10× SYBR Green PCR master mix (Perkin-Elmer Life Sciences, Boston, Mass.). Quantitative expression values were extrapolated from standard curves for Cyp26 expression with 10-fold dilutions of cDNA (in triplicate). Each sample was normalized to β-actin that was deduced from TaqMan assays, triplicate results were averaged, and relative Cyp26 mRNA levels were determined. The primers mCyp26 F (5′-[…]-3′) and mCyp26 R (5′-[…]-3′) were used. RNA measurements from human monocyte-derived macrophages were performed as described previously (10, 44).

ABCA1 protein = assay: Western blot of ABCA1 protein in RARγ−/− mouse peritoneal macrophages; assay type: cell-based; settings: 5 μM, 24 h
Procedure: Protein extracts from macrophages were prepared by lysing the cells in modified radioimmunoprecipitation assay buffer (50 mM Tris, 150 mM NaCl, 1 mM EDTA. 1% Triton X-100) containing a protease inhibitor cocktail (Complete EDTA Free; Roche). Protein content in the extracts was determined by using the DC protein assay (Bio-Rad, Hercules, Calif.). Equal amounts of protein (40 to 50 μg) were separated by electrophoresis with 4 to 15% acrylamide gradient gels (Bio-Rad) and then transferred to nitrocellulose membrane (Trans-Blot Transfer Medium; Bio-Rad). Membranes were probed with anti-ABCA1 antibody (Novus Biologicals, Littleton, Colo.) and anti-β-actin antibody (Sigma) according to the manufacturer's recommendations. Immunoblots were developed by using a chemiluminescent detection system (Super Signal West Pico chemiluminescent substrate; Pierce, Rockford, Ill.).

[2] = tested on: SREBP-1c, FAS, ABCA1, Cyp26 mRNA in liver; assay: Gene expression in mouse liver after intraperitoneal injection; assay type: in vivo; settings: mice, intraperitoneal 1 or 10 mg/kg, 24 h
Procedure: (A) RAR regulation of ABCA1 and SREBP-1c expression in mouse peritoneal macrophages. […] ABCA1 and SREBP-1c mRNA levels were determined by quantitative real-time reverse transcription-PCR and standardized against β-actin mRNA levels. The results are expressed as mean±the SEM (n=4 and 6). *, P<0.05; **, P<0.01 (compared to control). […] After 24 h, the mice were anesthetized, the livers were perfused, and the square lobes were removed for isolation of RNA. […] The results are expressed as mean±the SEM (n=5).
Total RNA was isolated from mouse peritoneal macrophages or ˜50 mg of mouse liver tissue by using the RNeasy Mini kit (Qiagen, Valencia, Calif.) or RNA-Bee reagent (Tel-Test, Inc., Friendswood, Tex.), respectively, according to the manufacturer's protocol. Real-time quantitative PCR assays were performed by using the Mx4000 Quantitative PCR System (Stratagene, La Jolla, Calif.). Briefly, 5 μg of total RNA was treated with RNase-free DNase I (Ambion, Austin, Tex.), and first-strand cDNA was synthesized with oligo(dT)12-18 by using a Superscript II RNase H^− reverse transcriptase reagent kit (Invitrogen) according to the manufacturer's protocol. For quantification of mouse ABCA1, ABCG1, SREBP-1c, LXRα, ApoE, and fatty acid synthase (FAS) mRNA levels, each amplification mixture contained 62.5 ng of cDNA, appropriate concentrations of forward and reverse primers and of dual-labeled fluorogenic probe (Biosearch Technologies, Novato, Calif.), and 12.5 μl of TaqMan Universal PCR master mix (Applied Biosystems, Foster City, Calif.). PCR thermocycling parameters were 50° C. for 2 min, 95° C. for 10 min, and 45 cycles of 95° C. for 15 s and 60° C. for 1 min. All samples were analyzed for β-actin expression in the same run. Quantitative expression values were extrapolated from standard curves for the gene of interest with 10-fold dilutions of cDNA (in triplicate). Each sample was normalized to β-actin, triplicates were averaged, and relative mRNA levels were determined. […]
For quantification of mouse Cyp26 mRNA levels, each amplification mixture (25 μ) contained 62.5 ng of cDNA, 100 nM concentrations of reverse and forward primers, and 2.5 μl of 10× SYBR Green PCR master mix (Perkin-Elmer Life Sciences, Boston, Mass.). Quantitative expression values were extrapolated from standard curves for Cyp26 expression with 10-fold dilutions of cDNA (in triplicate). Each sample was normalized to β-actin that was deduced from TaqMan assays, triplicate results were averaged, and relative Cyp26 mRNA levels were determined. […]

[3] = mouse peritoneal macrophages, TTNPB 1 μM, 24 h

C/C(=C\c1ccc(C(=O)O)cc1)c1ccc2c(c1)C(C)(C)CCC2(C)C [TTNPB, 4-[E-2-5,6.7.8-tetrahydro-5,5,8,8-tetramethyl-2-naphthalenyl-l-propenyl]benzoic acid]
decrease of nuclear RARα (RARα protein): ~2 fold
ABCA1 mRNA [1, 3]: induction of macrophage ABCA1 mRNA
SREBP-1c mRNA [1, 3]: no effect
Cyp26 mRNA increase ([1]; murine macrophages): 30 fold
ABCA1 protein induction (ABCA1 protein): still induced
Cyp26 mRNA in liver [2]: markedly induced
FAS gene expression in liver [2]: no response
hepatic ABCA1 mRNA [2]: not induced
hepatic SREBP-1c mRNA [2]: repressed
